The values that follow come from patent US9498476B2, “Crystalline form of 6-[(4S)-2-methyl-4-(2-naphthyl)-1,2,3,4-tetrahydroisoquinolin-7-yl]pyridazin-3-amine” (Bristol-Myers Squibb Company, priority 2008, dated 2016).

Molecules are shown by their SMILES.

Assay type in all cases: physicochemical
Data set [1] can be described thus: Solubility profile (USP definition) in solvents.
Data set [2] is described as follows: Distribution coefficient (Log Do/b). The conditions noted are these: pH 6.5.
Data set [3] is described as follows: pH-Solubility profile (aqueous solubility).

Regarding `CN1Cc2cc(-c3ccc(N)nn3)ccc2[C@H](c2ccc3ccccc3c2)C1` [Form N-1, 6-[(4S)-1,2,3,4-tetrahydro-2-methyl-4-(2-naphthalenyl)-7-isoquinolinyl]-3-pyridazinamine], the “Solubility profile (USP definition)” value was “slightly soluble: isopropanol, acetone, ethanol, methanol,” in data set [1] (acetone); “very slightly soluble: acetonitrile, ethyl acetate,” in data set [1] (acetonitrile); “slightly soluble: isopropanol, acetone, ethanol, methanol,” in data set [1] (dichloromethane); “slightly soluble: isopropanol, acetone, ethanol, methanol,” in data set [1] (ethanol); “very slightly soluble: acetonitrile, ethyl acetate,” in data set [1] (ethyl acetate); “slightly soluble: isopropanol, acetone, ethanol, methanol,” in data set [1] (isopropanol). In addition, the “Solubility profile (USP definition)” value in data set [1] (methanol) was “slightly soluble: isopropanol, acetone, ethanol, methanol,”; in data set [1] (n-butanol) it was “very slightly soluble: acetonitrile, ethyl acetate,”; in data set [1] (propylene glycol) it was “slightly soluble: isopropanol, acetone, ethanol, methanol,”. The “Distribution coefficient Log Do/b” value in data set [2] worked out at 3.10. The “Aqueous solubility (in words)” value in data set [3] is “high aqueous solubility”.
